Measured values from patent US5154929A, “Percutaneous absorption type preparation and process for preparing the same” (Nitto Denko Corporation, priority 1988, dated 1992).

Assay: Saturated solubility of the drug in the pressure-sensitive adhesive

Compound	Saturated Solubility (in adhesive of Comparative Example 3 (nonylacrylate 75, ethoxyethylacrylate 15, vinyl acetate 10)) [%]	Saturated Solubility (in adhesive of Comparative Example 4 (nonylacrylate 60, ethoxyethylacrylate 20, vinyl acetate 20)) [%]	Saturated Solubility (in adhesive of Example 3 (nonylacrylate 75, ethoxyethylacrylate 15, vinyl acetate 10)) [%]	Saturated Solubility (in adhesive of Comparative Example 5 (2-ethylhexylacrylate 85, N-vinyl-2-pyrrolidone 15)) [%]	Saturated Solubility (in adhesive of Comparative Example 6 (2-ethylhexylacrylate 75, N-vinyl-2-pyrrolidone 25)) [%]	Saturated Solubility (in adhesive of Example 4 (2-ethylhexylacrylate 85, N-vinyl-2-pyrrolidone 15)) [%]
CN1C(=O)CN=C(c2ccccc2F)c2cc([N+](=O)[O-])ccc21 [Flunitrazepam]	3.5	4	3.5			
CC(C)NCC(O)COc1cccc2[nH]ccc12 (stereo not drawn) [Pindolol]				7	6	7
